In patent US20120258980A1, “Antibacterial Agent for Drug-Resistant Bacteria, Method for Screening for Same, and Use of Same” (priority 2009, published 2012):
In brackets after ≈: the same amount, converted by molar mass. Where two headings read alike, the source gives them in different places.

Tests used:
[1] = tested on: methicillin-susceptible S. aureus (MSSA), MRSA and mutants thereof; assay: MIC measurement, Test Example 3 (MSSA, MRSA and sequential gyrA/grlA quinolone-resistant mutants); type: cell-based, Staphylococcus aureus; conditions: Staphylococcus aureus
How it was run: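 Broth microdilution in cation-adjusted Mueller Hinton broth: inoculum from overnight TSB cultures set to A578 0.3, then 500-fold diluted and added 1:1 to serial compound concentrations.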

[2] = tested on: MRSA, CA-MRSA and MSSA of Staphylococcus aureus; assay: MIC measurement, Test Example 4 (MRSA, CA-MRSA and MSSA strains); type: cell-based; conditions: Staphylococcus aureus
How it was run: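 S. aureus strains (FDA209P control) grown overnight in TSB at 37° C, resuspended in CAMHB, adjusted to A578 0.3 and diluted 500-fold. Equal volume added to CAMHB with serial compound concentrations, incubated statically overnight at 37° C. MIC read visually as lowest concentration without turbidity.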

[3] = tested on: VISA clinical isolates of MRSA (VI-MRSA) and of MSSA (VI-MSSA); assay: microbe, parasite or virus in culture; type: cell-based, Staphylococcus aureus
How it was run: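 Strains were grown overnight at 37° C in TSB, adjusted in CAMHB to 0.3 absorbance at 578 nm and diluted 500-fold before equal-volume addition to compound dilutions.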

VRSA clinical isolates = assay: microbe, parasite or virus in culture; type: cell-based; conditions: Staphylococcus aureus
Protocol: Each of the bacterial strains listed in Table 1-1 was shake-cultured at 37° C. overnight in 4 mL of a medium (Tryptical Soy Broth: TSB, product of Becton Dickinson and Company). FDA209P was used as a control.
After completion of culturing, the resultant culture was suspended in a cation-adjusted Mueller Hinton Broth (CAMHB, product of Becton Dickinson and Company). Then, the obtained bacterial culture was adjusted in absorbance with the CAMHB so that the absorbance at 578 nm of the bacterial culture was adjusted to 0.3 measured by an absorption spectrometer. In addition, the resultant bacterial culture was 500-fold diluted with the CAMHB.
Each of the 500-fold diluted, pre-cultured bacterial cultures was added at 50 μL/well to the CAMHB containing the quinolones and the nybomycins at various concentrations (50 μL/well), followed by statically culturing at 37° C. overnight.
After completion of culturing, the growth of the bacteria was visually determined based on turbidity to measure MIC in each bacterial strain.
Here, the glycopeptides used were VCM and TEIC. The β-lactam used was OXA.

Cc1cc(=O)n2c3c(c4c(cc13)c(CO)cc(=O)n4C)OC2 [NM, nybomycin]
MIC ([1]; FDA209P / MRSA / MSSA, FDA209P (MSSA), control, read-out: MIC): > 64 mg/L | MIC ([1]; MR5867 (MRSA), clinical isolate parent strain, no mutation): > 64 mg/L | MIC ([1]; MR5867-1, first-step quinolone-resistant mutant, grlA E84K): > 64 mg/L | MIC ([1]; MS5935 (MSSA), clinical isolate parent strain, no mutation, read-out: MIC): > 64 mg/L | MIC ([1]; MS5935-1, first-step quinolone-resistant mutant, grlA S80F): > 64 mg/L | MIC ([1]; MS5952 (MSSA), clinical isolate parent strain, no mutation, read-out: MIC): > 64 mg/L | MIC ([1]; MS5952-1, first-step quinolone-resistant mutant, grlA S80Y): > 64 mg/L | MIC ([2]; ATCC 29213 / MRSA / MSSA, ATCC 29213, MSSA): 64 mg/L (≈ 215 µM) | MIC ([2]; COL, MRSA): > 64 mg/L | MIC ([2]; FDA209P / MRSA / MSSA, FDA209P, MSSA): 64 mg/L (≈ 215 µM) | MIC ([2]; ISA12-1, MRSA): > 64 mg/L | MIC ([2]; ISA12-2, MRSA): > 64 mg/L | MIC ([2]; ISA35-1, MRSA): > 64 mg/L | MIC ([2]; ISA37-1, MSSA): > 64 mg/L | MIC ([2]; ISA49-1, MSSA): > 64 mg/L | MIC ([2]; ISA51-1, MSSA): > 64 mg/L | MIC ([2]; ISA56-3, MRSA): > 64 mg/L | MIC ([2]; ISA58-1, MRSA): 16 mg/L (≈ 53.6 µM) | MIC ([2]; ISA62-1, MRSA): > 64 mg/L | MIC ([2]; ISA73-1, MSSA): > 64 mg/L | MIC ([2]; KBSA32, MRSA): > 64 mg/L | MIC ([2]; KBSA34, MRSA): > 64 mg/L | MIC ([2]; KBSA72, MRSA): ≤ 0.063 mg/L | MIC ([2]; KBSA96, MRSA): 0.125 mg/L (≈ 0.419 µM) | MIC ([2]; KBSA171, MRSA): 0.25 mg/L (≈ 0.838 µM) | MIC ([2]; KSA24, MRSA): 0.5 mg/L (≈ 1.68 µM) | MIC ([2]; KSA31, MRSA): 1 mg/L (≈ 3.35 µM) | MIC ([2]; KSA36, MRSA): ≤ 0.063 mg/L | MIC ([2]; MRSA / MSSA / NCTC 8325, NCTC 8325, MSSA): > 64 mg/L | MIC ([2]; MRSA / MSSA / USA300, USA300 FPR3757, CA-MRSA): 0.25 mg/L (≈ 0.838 µM) | MIC ([2]; MW2, CA-MRSA): 64 mg/L (≈ 215 µM) | MIC ([2]; N315, MRSA): 64 mg/L (≈ 215 µM) | MIC ([3]; Staphylococcus aureus, 99/3700-W, VI-MRSA, The United Kingdom): 0.25 mg/L (≈ 0.838 µM) | MIC ([3]; Staphylococcus aureus, 99/3759-V, VI-MRSA, The United Kingdom): 0.5 mg/L (≈ 1.68 µM) | MIC ([3]; Staphylococcus aureus, 28160, VI-MRSA, South African Republic): 0.5 mg/L (≈ 1.68 µM) | MIC ([3]; Staphylococcus aureus, 98141, VI-MRSA, France): 0.5 mg/L (≈ 1.68 µM) | MIC ([3]; Staphylococcus aureus, A7 (JCSC4842), VI-MRSA, Taiwan): 0.125 mg/L (≈ 0.419 µM) | MIC ([3]; Staphylococcus aureus, AMC11094, VI-MRSA, Korea): 1 mg/L (≈ 3.35 µM) | MIC ([3]; Staphylococcus aureus, B7 (JCSC4852), VI-MRSA, Taiwan): ≤ 0.063 mg/L | MIC ([3]; Staphylococcus aureus, BR1, VI-MRSA, Brazil): 0.5 mg/L (≈ 1.68 µM) | MIC ([3]; Staphylococcus aureus, BR2, VI-MRSA, Brazil): 0.25 mg/L (≈ 0.838 µM) | MIC ([3]; Staphylococcus aureus, BR3, VI-MRSA, Brazil): 0.25 mg/L (≈ 0.838 µM) | MIC ([3]; Staphylococcus aureus, BR4, VI-MRSA, Brazil): 0.25 mg/L (≈ 0.838 µM) | MIC ([3]; Staphylococcus aureus, BR5, VI-MRSA, Brazil): 0.25 mg/L (≈ 0.838 µM) | MIC ([3]; Staphylococcus aureus, HIP06297, VI-MRSA, America): 0.5 mg/L (≈ 1.68 µM) | MIC ([3]; Staphylococcus aureus, HIP06854, VI-MRSA, America): 1 mg/L (≈ 3.35 µM) | MIC ([3]; Staphylococcus aureus, HIP07920, VI-MRSA, America): 0.25 mg/L (≈ 0.838 µM) | MIC ([3]; Staphylococcus aureus, HIP07930, VI-MRSA, America): 1 mg/L (≈ 3.35 µM) | MIC ([3]; Staphylococcus aureus, HIP08926, VI-MRSA, America): 0.25 mg/L (≈ 0.838 µM) | MIC ([3]; Staphylococcus aureus, HIP09143, VI-MRSA, America): 0.25 mg/L (≈ 0.838 µM) | MIC ([3]; Staphylococcus aureus, HIP09313, VI-MRSA, America): 0.5 mg/L (≈ 1.68 µM) | MIC ([3]; Staphylococcus aureus, HIP09433, VI-MRSA, America): 1 mg/L (≈ 3.35 µM) | MIC ([3]; Staphylococcus aureus, HIP09662, VI-MRSA, America): 1 mg/L (≈ 3.35 µM) | MIC ([3]; Staphylococcus aureus, HIP09735, VI-MRSA, America): 0.25 mg/L (≈ 0.838 µM) | MIC ([3]; Staphylococcus aureus, HIP09737, VI-MSSA, America): 1 mg/L (≈ 3.35 µM) | MIC ([3]; Staphylococcus aureus, HIP09740, VI-MRSA, America): 0.25 mg/L (≈ 0.838 µM) | MIC ([3]; Staphylococcus aureus, HIP10267, VI-MRSA, America): 2 mg/L (≈ 6.7 µM) | MIC ([3]; Staphylococcus aureus, HIP10540, VI-MRSA, America): 0.25 mg/L (≈ 0.838 µM) | MIC ([3]; Staphylococcus aureus, HIP12864, VI-MRSA, America): 0.5 mg/L (≈ 1.68 µM) | MIC ([3]; Staphylococcus aureus, HIP13036, VI-MRSA, America): 0.5 mg/L (≈ 1.68 µM) | MIC ([3]; Staphylococcus aureus, HIP13057, VI-MRSA, America): 0.25 mg/L (≈ 0.838 µM) | MIC ([3]; Staphylococcus aureus, IL (HIP7737), VI-MRSA, America): 1 mg/L (≈ 3.35 µM) | MIC ([3]; Staphylococcus aureus, JCSC7193, VI-MRSA, Thailand): 0.33 mg/L (≈ 1.11 µM) | MIC ([3]; Staphylococcus aureus, JCSC7195, VI-MRSA, Thailand): 0.33 mg/L (≈ 1.11 µM) | MIC ([3]; Staphylococcus aureus, JCSC7203, VI-MRSA, Thailand): 0.16 mg/L (≈ 0.536 µM) | MIC ([3]; Staphylococcus aureus, LIM2, VI-MRSA, France): 0.5 mg/L (≈ 1.68 µM) | MIC ([3]; Staphylococcus aureus, LY-1999-01, VI-MSSA, Oman): 0.125 mg/L (≈ 0.419 µM) | MIC ([3]; Staphylococcus aureus, LY-1999-03, VI-MRSA, Oman): ≤ 0.063 mg/L | MIC ([3]; Staphylococcus aureus, MI (HIP5827), VI-MRSA, America): 0.5 mg/L (≈ 1.68 µM) | MIC ([3]; Staphylococcus aureus, MRSA / MSSA / NRS 76 / VISA, NRS76, VI-MSSA, America): 0.25 mg/L (≈ 0.838 µM) | MIC ([3]; Staphylococcus aureus, MRSA / MSSA / NRS 79 / VISA, NRS79, VI-MRSA, America): 1 mg/L (≈ 3.35 µM) | MIC ([3]; Staphylococcus aureus, MRSA / MSSA / NRS 118 / VISA, NRS118, VI-MRSA, America): 0.25 mg/L (≈ 0.838 µM) | MIC ([3]; Staphylococcus aureus, MRSA / MSSA / NRS 126 / VISA, NRS126, VI-MRSA, America): 0.5 mg/L (≈ 1.68 µM) | MIC ([3]; Staphylococcus aureus, Mu3, VI-MRSA, Japan): 0.5 mg/L (≈ 1.68 µM) | MIC ([3]; Staphylococcus aureus, Mu50, VI-MRSA, Japan): 0.25 mg/L (≈ 0.838 µM) | MIC ([3]; Staphylococcus aureus, NJ (HIP5836), VI-MRSA, America): 0.5 mg/L (≈ 1.68 µM) | MIC ([3]; Staphylococcus aureus, P1V44, VI-MSSA, Belgium): 1 mg/L (≈ 3.35 µM) | MIC ([3]; Staphylococcus aureus, PC, VI-MRSA, America): 1 mg/L (≈ 3.35 µM) | MIC ([3]; Staphylococcus aureus, SA MER-S6, VI-MSSA, France): 64 mg/L (≈ 215 µM) | MIC ([3]; Staphylococcus aureus, SA MER-S12, VI-MSSA, France): 64 mg/L (≈ 215 µM) | MIC ([3]; Staphylococcus aureus, SA MER-S20, VI-MSSA, France): > 64 mg/L | MIC (VRSA clinical isolates; VRS1, VRSA, Michigan): 0.125 mg/L (≈ 0.419 µM) | MIC (VRSA clinical isolates; VRS2, VRSA, Pennsylvania): 0.25 mg/L (≈ 0.838 µM) | MIC (VRSA clinical isolates; VRS3, VRSA, New York): 0.125 mg/L (≈ 0.419 µM) | MIC (VRSA clinical isolates; VRS4, VRSA, New York): 0.125 mg/L (≈ 0.419 µM) | MIC (VRSA clinical isolates; VRS5, VRSA, Michigan): ≤ 0.063 mg/L | MIC (VRSA clinical isolates; VRS6, VRSA, Michigan): ≤ 0.063 mg/L | MIC (VRSA clinical isolates; VRS7, VRSA, Michigan): 0.5 mg/L (≈ 1.68 µM)
